The record followed here is PMC12615753, “Glutathione as a taste modulator: molecular mechanisms of interaction with umami and sweet taste receptors” (Food Chemistry: Molecular Sciences, 2025).

What is called EC50 is the concentration at which the effect is half-maximal.

The assay addresses T1, hTAS1R1 Y220A/rTAS1R3 (UniProt Q7RTX1+Q923K1, Y220A).
T1 construct: UniProtKB number Q7RTX1–1); The cDNA coding region of rTAS1R3 was synthesized with optimized-codon usage for human expression; expressed in transfected cells; host or cells: HEK293T/17
T1 sequence (Q7RTX1 21-841 Y220A): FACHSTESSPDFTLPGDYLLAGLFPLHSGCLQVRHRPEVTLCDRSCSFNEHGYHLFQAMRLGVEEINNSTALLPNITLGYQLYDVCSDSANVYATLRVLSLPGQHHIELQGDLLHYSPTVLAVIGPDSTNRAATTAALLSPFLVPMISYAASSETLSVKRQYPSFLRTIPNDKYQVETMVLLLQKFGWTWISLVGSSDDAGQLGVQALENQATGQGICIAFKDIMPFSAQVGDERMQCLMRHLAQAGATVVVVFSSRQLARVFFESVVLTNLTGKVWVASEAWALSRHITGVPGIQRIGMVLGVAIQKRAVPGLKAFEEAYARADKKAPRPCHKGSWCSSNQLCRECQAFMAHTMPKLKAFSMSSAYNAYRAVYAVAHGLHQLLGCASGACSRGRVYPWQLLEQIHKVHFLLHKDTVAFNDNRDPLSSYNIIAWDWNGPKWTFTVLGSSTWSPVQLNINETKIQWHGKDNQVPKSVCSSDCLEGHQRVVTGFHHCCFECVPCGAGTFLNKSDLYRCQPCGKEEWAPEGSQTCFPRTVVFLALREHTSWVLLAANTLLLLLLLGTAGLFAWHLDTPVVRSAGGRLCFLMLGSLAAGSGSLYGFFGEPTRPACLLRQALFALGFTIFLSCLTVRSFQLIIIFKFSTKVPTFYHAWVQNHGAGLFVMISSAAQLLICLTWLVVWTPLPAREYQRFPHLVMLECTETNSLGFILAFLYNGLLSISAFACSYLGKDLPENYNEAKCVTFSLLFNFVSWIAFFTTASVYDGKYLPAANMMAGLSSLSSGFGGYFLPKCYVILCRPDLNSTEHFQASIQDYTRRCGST
T1 sequence (Q923K1 21-858): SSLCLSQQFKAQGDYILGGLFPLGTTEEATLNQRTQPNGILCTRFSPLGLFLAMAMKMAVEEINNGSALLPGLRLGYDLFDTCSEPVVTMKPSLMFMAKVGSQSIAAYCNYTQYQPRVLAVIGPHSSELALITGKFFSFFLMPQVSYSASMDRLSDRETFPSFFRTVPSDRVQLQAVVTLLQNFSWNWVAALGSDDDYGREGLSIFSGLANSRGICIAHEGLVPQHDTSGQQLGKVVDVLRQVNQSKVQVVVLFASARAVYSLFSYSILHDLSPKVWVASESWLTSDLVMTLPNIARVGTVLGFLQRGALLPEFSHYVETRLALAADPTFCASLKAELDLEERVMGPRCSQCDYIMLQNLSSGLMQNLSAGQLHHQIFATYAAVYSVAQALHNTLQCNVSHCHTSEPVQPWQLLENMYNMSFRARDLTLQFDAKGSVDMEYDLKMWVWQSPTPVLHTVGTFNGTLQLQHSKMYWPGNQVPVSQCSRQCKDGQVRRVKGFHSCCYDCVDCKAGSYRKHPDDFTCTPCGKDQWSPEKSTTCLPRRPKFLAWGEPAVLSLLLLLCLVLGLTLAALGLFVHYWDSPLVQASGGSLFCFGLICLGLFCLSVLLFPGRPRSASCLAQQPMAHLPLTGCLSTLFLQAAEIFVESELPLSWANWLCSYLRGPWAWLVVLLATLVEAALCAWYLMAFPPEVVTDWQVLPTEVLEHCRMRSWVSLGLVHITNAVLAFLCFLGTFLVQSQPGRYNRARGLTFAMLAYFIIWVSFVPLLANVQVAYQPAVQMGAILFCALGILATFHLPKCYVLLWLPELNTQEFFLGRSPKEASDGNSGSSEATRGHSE
Put plainly: Calcium assay, hTAS1R1 mutant co-expressed with rTAS1R3. The format is cell-based, human, rat. Particulars: for response to the agonist alone, vs WT: Y220A.

Take `N[C@@H](CCC(=O)N[C@@H](CS)C(=O)NCC(=O)O)C(=O)O` [GSH, γ-L-glutamyl-L-cysteinyl-glycine]: the EC50 was greater than 30 mM and the “response to the agonist alone, vs WT” value is “fully abolished”.

`CCCC(CCC)NC(=O)c1ccc2c(c1)OCO2` [S807, N-(heptan-4-yl)benzo[d][1,3]dioxole-5-carboxamide, reference compound]: the “response to the agonist alone, vs WT” value is reported as “strongly affected”.

As to `N[C@@H](CCC(=O)O)C(=O)O` [L-Glu, L-glutamic acid, reference compound], the “response to the agonist alone, vs WT” value is recorded as “completely suppressed”.
